In test [1] the test system is L-687,414-induced hyperlocomotion. To be noted: mice; D. Alberati et al 2010; cited from earlier work.
Test [2] has as its system schizophrenic patients. To be noted: added to conventional therapy; cited from earlier work.
Test [3] deals with L-687,414-induced hyperlocomotion. Description: Reversal of L-687,414-induced hyperlocomotion in mice. It is filed as in vivo. To be noted: for ED50: Mus musculus, po, 1 h, read-out: ED50 of compound alone, L-687,414-induced hyperlocomotion; for reversal of hyperlocomotion induced by L-687,414 (in words): single agents, mice, L-687,414 50 mg/kg. Here is the method:
RG1678, [4-(3-Fluoro-5-trifluoromethyl-pyridin-2-yl)-piperazin-1-yl]-[5-methanesulfonyl-2-((S)-2,2,2 trifluoro-1-methyl-ethoxy)-phenyl]-methanone (WO05/014563) and L-687,414, ((3R,4R)-3-amino-1-hydroxy-4-methylpyrrolidin-2-one (Tetrahedron Letters, Vol. 49, issue 42, 2008, 6079-6080) and olanzapine were synthesized according to known methods by the Medicinal Chemistry Department of F. Hoffmann-La Roche, and risperidone was purchased from Sigma. All drugs were dissolved in H2O/0.3% Tween 80 and administered orally in a volume of 10 ml/kg body weight.
Male NMRI mice (20-30 g) supplied from Iffa Credo, Lyon, France, were housed in a vivarium at controlled temperature (20-22° C.) and a 12 hr light/dark cycle (lights on 6:00 a.m. Animals were allowed ad libitum access to food and water. The experimental procedures used in the present study received prior approval from the City of Basel Cantonal Animal Protection Committee based on adherence to federal and local regulations. Behavioral experiments were conducted during the hours of 8:00 a.m. and 2:00 p.m.
A computerized Digiscan 16 Animal Activity Monitoring System (Omnitech Electronics, Columbus, Ohio) was used to quantify locomotor activity. Data were obtained simultaneously from eight Digiscan activity chambers placed in a soundproof room with a 12 hr light/dark cycle. Experiments were performed during the light phase between 06:30 a.m. and 5:00 p.m. Each activity monitoring chamber consisted of a Plexiglas box (41×41×28 cm; W×L×H) with sawdust bedding on the floor surrounded by invisible horizontal and vertical infrared sensor beams. The chambers were divided by a Plexiglas cross providing each mouse with 20×20 cm of moving space. Two animals per box were monitored simultaneously. Chambers were connected to a Digiscan Analyzer linked to a computer that constantly collected the beam status information. The activity detector operates by counting the number of times the beams change from uninterrupted to interrupted status or vice-versa. Records of photocell beam interruptions for individual animals were taken every five minutes over the duration of the experimental session. Mice were first treated with RG1678 at different doses or at a fixed low dose administered p.o. and, 30 minutes later, treated with an antipsychotic at different doses or at a fixed low dose administered p.o. Fifteen minutes after the antipsychotic treatment mice received a s.c. injection of 50 mg/kg of L-687,414. Mice were then transferred from their home cages to the recording chambers for a 15-min habituation phase allowing free exploration of the new environment. Horizontal activity was then recorded for a 60-min time period. The horizontal activity value for each group of animals at a given dose of RG1678 alone or in combination with an antipsychotic (y1) was expressed as % of L-687,414-induced hyperlocomotion and calculated according to the equation (((y1−vehicle horizontal activity)/(L-687,414 horizontal activity−vehicle horizontal activity))×100). For dose-response experiments, the horizontal activity value for each group of animal at a given dose of GlyT1 inhibitor or antipsychotics (y1) was expressed as a percent of L-687,414-induced hyperlocomotion and calculated according to the equation (((y1−vehicle horizontal activity)/(L-687,414 horizontal activity−vehicle horizontal activity))×100). ID50 values, defined as doses of each compound producing 50% inhibition of L-687,414-induced hyperlocomotion, were calculated by linear regression analysis of the dose-response data using an Excel-based computer curve-fitting program.

Several values for one entry are separate records, joined by “and”; a condition that tells them apart may be missing. Equal values may be shown once. Read-outs that look alike come from different tables or passages of the source.

Data on eight compounds can be found in patent US20120035156A1, “COMBINATION OF GLYT1 COMPOUND WITH ANTIPSYCHOTICS” (priority 2010, published 2012).

Regarding `NCC(=O)O` [glycine], the “prevention of hyperlocomotion induced by L-687,414 (assay validation)” value (“prevention of hyperlocomotion induced” below) in test [1] is given as “dose-dependently blocked hyperlocomotion”. The “effect on positive, negative and cognitive symptoms” value (“effect on positive” below) in test [2] is “improved positive, negative and cognitive symptoms”. With `N[C@H](CO)C(=O)O` [D-serine], in test [2], the “effect on positive” value was “improved positive, negative and cognitive symptoms”. As to `Cc1cc2c(s1)Nc1ccccc1N=C2N1CCN(C)CC1` [olanzapine, 2-methyl-4-(4-methyl-1-piperazinyl)-10H-thieno[2,3-b][1.5]benzodiazepine], the ED50 in test [3] came out at 0.06 mg/kg. Moreover, the “reversal of hyperlocomotion induced by olanzapine alone” value in test [3] (olanzapine 0.05 mg/kg p.o., male NMRI mice, L-687,414 50 mg/kg s.c.) turned out to be 34%. As to `CNCC(=O)O` [sarcosine], the “effect on positive” value in test [2] was “improved positive, negative and cognitive symptoms”. On to `O=C1CCc2ccc(OCCCCN3CCN(c4cccc(Cl)c4Cl)CC3)cc2N1` [aripiprazole, 7-{4-[4-(2,3-dichlorophenyl)piperazin-1-yl]butoxy}-3,4-dihydroquinolin-2(1H)-one], for which the “prevention of hyperlocomotion induced” value in test [1] is “effective in preventing this behavioral effect in a dose-dependant manner”. As for `Cc1nc2n(c(=O)c1CCN1CCC(c3noc4cc(F)ccc34)CC1)CCCC2` [risperidone, 3-[2-[4-(6-fluoro-1,2-benzisoxazol-3-yl)piperidino]ethyl]-2.methyl-6,7,8,9-tetrahydro-4H-pyrido-[1.2-a]pyrimidin-4-one], in test [1], the “prevention of hyperlocomotion induced” value is listed as “effective in preventing this behavioral effect in a dose-dependant manner”. For the same compound, in test [3], the ED50 came out at 0.023 mg/kg and the “reversal of hyperlocomotion induced by L-687,414 (in words)” value is reported as “dose-dependently reversed hyperlocomotion”. The “reversal of hyperlocomotion induced by risperidone alone” value in test [3] (risperidone 0.005 mg/kg p.o., male NMRI mice, L-687,414 50 mg/kg s.c.) is on record as 15%. As to `O=C(CCCN1CCC(O)(c2ccc(Cl)cc2)CC1)c1ccc(F)cc1` [haloperidol], the “prevention of hyperlocomotion induced” value in test [1] was “effective in preventing this behavioral effect in a dose-dependant manner”.

Take `C[C@H](Oc1ccc(S(C)(=O)=O)cc1C(=O)N1CCN(c2ncc(C(F)(F)F)cc2F)CC1)C(F)(F)F` [RG1678]: in test [3] (male NMRI mice, p.o., L-687,414 50 mg/kg s.c., horizontal activity recorded 1 hour), the ED50 came to 0.76 mg/kg. In addition, the “reversal of hyperlocomotion induced by RG1678 alone” value in test [3] (RG1678 0.6 mg/kg p.o., male NMRI mice, L-687,414 50 mg/kg s.c.) was 19% and 21%. The “reversal of hyperlocomotion induced by L-687,414 (in words)” value in test [3] is “dose-dependently reversed hyperlocomotion”.

Broadly, the ED50 is the midpoint of the dose-response relation.
